Active and inactive are the calls of the source. Rule as the data show it, for most assays here: actives have a measured EC50 and inactives only a lower limit. Peptide text beside a SMILES is read from it. * marks the point of attachment. Cbz = O=C(OCc1ccccc1)*

Experiment [1] concerns the target T1, Corticotropin-releasing factor receptor 2/Corticotropin-releasing factor-binding protein (Homo sapiens, UniProt P24387+Q13324).
T1 sequence (Q13324 whole entry): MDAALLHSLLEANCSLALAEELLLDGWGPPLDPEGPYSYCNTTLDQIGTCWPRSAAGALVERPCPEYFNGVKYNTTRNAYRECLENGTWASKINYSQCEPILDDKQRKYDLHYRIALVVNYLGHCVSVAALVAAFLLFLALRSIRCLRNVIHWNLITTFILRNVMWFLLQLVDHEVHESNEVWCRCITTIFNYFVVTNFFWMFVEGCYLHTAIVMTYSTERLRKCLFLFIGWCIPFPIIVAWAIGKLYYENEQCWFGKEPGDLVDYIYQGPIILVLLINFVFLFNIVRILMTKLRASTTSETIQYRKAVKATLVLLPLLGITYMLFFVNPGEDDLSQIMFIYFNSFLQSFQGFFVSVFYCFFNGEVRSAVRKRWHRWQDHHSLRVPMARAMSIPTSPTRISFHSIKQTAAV
T1 sequence (P24387 whole entry): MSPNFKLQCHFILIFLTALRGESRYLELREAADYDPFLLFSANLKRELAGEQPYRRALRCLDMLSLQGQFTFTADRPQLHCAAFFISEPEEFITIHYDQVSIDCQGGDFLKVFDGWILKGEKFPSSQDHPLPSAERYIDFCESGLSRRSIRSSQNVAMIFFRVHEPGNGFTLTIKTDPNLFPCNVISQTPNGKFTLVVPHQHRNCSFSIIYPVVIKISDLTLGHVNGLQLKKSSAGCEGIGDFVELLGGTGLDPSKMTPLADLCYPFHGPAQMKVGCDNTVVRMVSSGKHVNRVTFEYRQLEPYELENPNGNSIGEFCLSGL
The experiment can be described thus: Dose Response confirmation of uHTS hits for small molecule antagonists of the CRF-binding protein and CRF-R2 receptor complex. The conditions noted are these: read-out: IC50_Mean. It counts as functional.

The target in experiment [2] is T1, Corticotropin-releasing factor receptor 2/Corticotropin-releasing factor-binding protein. Description: activators of CRF receptor 2 with binding protein – uHTS hits, confirmation (AID 602473). The experiment is classed as functional. The conditions noted are these: read-out: EC50_Mean.
For another experiment, the target named is Paired box protein Pax-8 (Homo sapiens, UniProt Q06710). Description: inhibitors of PAX8-driven TPO luciferase reporter, dose response, RMG-I cells, cherry-pick (AID 687027).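 Also: luciferase reporter driven by Pax8 target thyroperoxidase promoter measured by SteadyGlo luminescence.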 The experiment is classed as functional, cell-based. (In general: In a reporter assay the amount or activity of a reporter protein is the signal.)
The nature of experiment [3]: inhibitors of intracellular T. cruzi replication, confirmation, NIH3T3 host cells, beta-gal luminescence (AID 2044).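 Also: intracellular parasites grown in NIH/3T3 mouse fibroblasts as host cells; luminescent beta-galactosidase reporter signal from transgenic T. cruzi replicating inside host cells; inhibitors lower the luminescence signal.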 It counts as functional, cell-based.
Experiment [4] in a line: cytotoxicity toward NIH3T3 fibroblasts, dose response, counter-screen, cell-based, ATP luminescence, mouse fibroblasts (AID 2010).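 Also: cells exposed to compound for about 90 hours before reading.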 The experiment is classed as functional. (In general: The purpose of a counterscreen is to sort out artefacts and off-target activity.)
The next experiment concerns the target Cytochrome P450 3A4 (Homo sapiens, UniProt P08684).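 Also: CYP3A4 tested as one member of a cytochrome P450 panel screen.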
Another experiment concerns the target Cytochrome P450 2C9 (Homo sapiens, UniProt P11712).
The next experiment relates to Streptococcus. The experiment can be described thus: Group A Streptococcus viability loss, dose response, counter-screen for streptokinase expression inhibitor project, luminescence, BacTiterGlo (AID 1915).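 Also: potency for reduction of bacterial viability or growth.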 It counts as functional, organism-based.
Experiment [5] relates to Streptococcus sp. 'group A'. The experiment can be described thus: growth inhibition of control SK(-) GAS strain, dose response, counter-screen for streptokinase expression inhibitor project, luminescence, kanamycin, BacTiterGlo, confirmation (AID 1900). It counts as functional, organism-based.

Chain of Cytochrome P450 3A4 (P08684 whole entry): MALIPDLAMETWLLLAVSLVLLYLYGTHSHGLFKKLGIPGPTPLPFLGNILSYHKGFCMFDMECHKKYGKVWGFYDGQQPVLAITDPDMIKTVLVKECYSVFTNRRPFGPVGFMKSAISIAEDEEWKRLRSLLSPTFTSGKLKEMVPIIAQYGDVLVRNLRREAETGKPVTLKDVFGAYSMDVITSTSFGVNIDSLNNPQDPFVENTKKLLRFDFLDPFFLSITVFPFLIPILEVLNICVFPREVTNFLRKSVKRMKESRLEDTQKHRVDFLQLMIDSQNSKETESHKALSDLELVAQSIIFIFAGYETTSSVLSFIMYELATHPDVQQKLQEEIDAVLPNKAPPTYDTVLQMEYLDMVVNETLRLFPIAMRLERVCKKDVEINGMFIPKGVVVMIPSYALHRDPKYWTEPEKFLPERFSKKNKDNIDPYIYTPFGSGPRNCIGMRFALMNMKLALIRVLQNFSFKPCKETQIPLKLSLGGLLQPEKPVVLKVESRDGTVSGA
Chain of Cytochrome P450 2C9 (P11712 whole entry): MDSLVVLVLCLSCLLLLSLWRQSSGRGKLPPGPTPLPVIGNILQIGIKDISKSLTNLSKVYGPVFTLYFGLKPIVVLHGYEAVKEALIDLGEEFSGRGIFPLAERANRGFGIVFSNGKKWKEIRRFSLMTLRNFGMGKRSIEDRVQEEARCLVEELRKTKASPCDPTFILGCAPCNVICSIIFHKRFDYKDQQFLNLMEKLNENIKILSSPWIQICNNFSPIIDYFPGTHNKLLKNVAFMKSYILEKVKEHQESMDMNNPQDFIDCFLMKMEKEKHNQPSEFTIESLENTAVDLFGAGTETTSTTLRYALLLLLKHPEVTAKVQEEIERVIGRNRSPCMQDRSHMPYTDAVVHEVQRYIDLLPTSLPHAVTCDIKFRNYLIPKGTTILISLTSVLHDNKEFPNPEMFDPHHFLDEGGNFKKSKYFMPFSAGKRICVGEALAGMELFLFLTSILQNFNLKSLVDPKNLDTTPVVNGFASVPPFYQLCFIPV
Chain of Paired box protein Pax-8 (Q06710 whole entry): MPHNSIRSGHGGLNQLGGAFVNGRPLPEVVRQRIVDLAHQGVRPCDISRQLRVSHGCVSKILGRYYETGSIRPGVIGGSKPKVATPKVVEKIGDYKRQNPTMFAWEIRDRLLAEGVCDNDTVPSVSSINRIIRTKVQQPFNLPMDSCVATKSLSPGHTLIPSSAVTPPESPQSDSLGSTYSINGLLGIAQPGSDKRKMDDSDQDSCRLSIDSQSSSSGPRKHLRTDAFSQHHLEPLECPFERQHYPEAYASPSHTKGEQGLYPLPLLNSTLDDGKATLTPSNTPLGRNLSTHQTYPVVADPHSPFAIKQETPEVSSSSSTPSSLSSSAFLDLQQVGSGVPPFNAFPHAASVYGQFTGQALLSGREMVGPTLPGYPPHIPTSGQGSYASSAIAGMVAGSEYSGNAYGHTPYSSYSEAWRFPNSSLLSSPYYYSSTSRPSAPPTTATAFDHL

For `CCCNCCC(c1ccco1)c1ccccc1OC` (stereo not given), the IC50 in experiment [1] is > 47.1 µM (inactive). Also, the EC50 in [2] is > 53 µM (inactive).

On to `O=C(OCCN1C(=O)c2ccccc2C1=O)c1cccc(OC(F)F)c1`, for which the IC50 in [1] is > 47.1 µM (inactive). Besides, in experiment [2], the EC50 is > 53 µM (inactive).

For the compound `C[C@@H]1CN([C@@H](C)CO)C(=O)c2cc(NC(=O)Nc3ccc(C(F)(F)F)cc3)ccc2O[C@@H](C)CCCCO[C@@H]1CN(C)Cc1ccncc1`, on Paired box protein Pax-8, the AC50 (as a rule, the midpoint of the concentration-response curve, whichever way the signal moves) was 9.03 µM (active).

Consider `O=[N+]([O-])c1nn(-c2ccc3c(c2)OCCO3)[n+]([O-])c1NC1CCCC1`, for which the EC50 in experiment [3] is 0.88 µM (active); in [4], > 30 µM (not active).

Take `O=c1c(-c2cccc(Cl)c2)nc2cncnc2n1C1CC1`: at Cytochrome P450 3A4, the AC50 is 15.8 µM (inconclusive).

With `CCCC(=O)NC(=S)Nc1ccc(S(=O)(=O)Nc2ccc(OCC)cc2)cc1`, the EC50 in experiment [2] is > 53 µM (inactive).

For the compound `Cc1ccc(CN2CCN(Cc3nc4c(s3)CCCC4)CC2CCO)cc1` (stereo not given), the EC50 in [3] is 0.546 µM (active); in experiment [4] it was > 60 µM (not active).

With `CCOC(=O)C1=C(CCc2ccccc2)NC(=O)NC1c1cccc([N+](=O)[O-])c1` (stereo not given), the IC50 in experiment [1] was > 47.1 µM (inactive). In addition, the EC50 in experiment [2] is > 53 µM (inactive).

As to `CC(C)CCN=C(S)NC1CCCC1`, the AC50 on Cytochrome P450 2C9 is 39.8 µM (inconclusive); at Cytochrome P450 3A4 it was 22.4 µM (inconclusive).

Turning to `O=C(CSc1nnc(CNc2ccc(F)cc2)o1)OC1CCCCC1`, the AC50 at Cytochrome P450 2C9 was 17.8 µM (inconclusive).

For `Fc1ccc(Cn2nnnc2C(c2ccc(Cl)cc2)N2CC=C(c3ccc(F)cc3)CC2)cc1` (stereo not given), the EC50 in experiment [3] was 1.34 µM (active); in experiment [4], > 60 µM (not active).

On to `Cc1ccc(NC(=O)CN(c2ccc(Cl)cc2)S(=O)(=O)c2cc([N+](=O)[O-])ccc2Cl)c(C)c1`, for which the results for the EC50 in experiment [3] and in experiment [4] were 2.42 µM (active) and > 60 µM (inconclusive), respectively.

With `Cc1cccc(CN2CCN(CC(=O)O)C2=O)c1`, the AC50 on Cytochrome P450 3A4 is 15.8 µM (inconclusive).

Turning to `COCCNC(=O)CN(CC1CCCO1)C(=O)CCC(=O)Nc1ccccn1` (stereo not given), in [1], the IC50 was > 47.1 µM (inactive). Also, the EC50 in experiment [2] is > 53 µM (inactive).

Take `N=C(N)SCc1cccc(-c2nc3ccccc3c(=O)o2)c1`: the AC50 at Cytochrome P450 2C9 is 5.01 µM (inconclusive).

On to `Cc1c(C(=O)Nc2nc3ccccc3[nH]2)oc2ccc(Br)cc12`, for which the EC50 was 1.63 µM (active) in [3] and > 60 µM (not active) in [4].

Regarding `O=C(N/N=C/c1ccc(-c2cccc(C(F)(F)F)c2)o1)c1cccc(F)c1`, the EC50 is 1.15 µM (active) in [3] and > 60 µM (not active) in experiment [4].

Take `Cc1nnsc1C(=O)NC1CCCc2c1cnn2-c1ccc(C(C)(C)C)cc1` (stereo not given): the EC50 was 1.98 µM (active) in experiment [3] and > 60 µM (not active) in experiment [4].

Take `Cc1ccc2nc(Cl)c(/C=C/C(=O)c3ccco3)cc2c1`: the IC50 in experiment [1] is > 47.1 µM (inactive). Besides, the EC50 in [2] was > 53 µM (inactive).

With `O=C(CCNS(=O)(=O)c1cccs1)N1CCc2ccccc2C1`, at Cytochrome P450 3A4, the AC50 is 14.1 µM (inconclusive).

As to `Cc1cc(C)n(-c2nc(SCCN(C)C)c3c4c(sc3n2)COC(C)(C)C4)n1`, the EC50 in experiment [3] was 0.836 µM (active); in [4], > 30 µM (not active).

For the compound `COc1c(CC=C(C)C)cc(C2CC(=O)c3c(O)cc(O)cc3O2)c(CC=C(C)C)c1O` (stereo not given), the EC50 in the experiment on Streptococcus is 2.9 µM (active); in experiment [5], 3.02 µM (active).

Turning to `CN1CCN(C(CNC(=O)C(=O)Nc2ccc3c(c2)OCCO3)c2ccc(F)cc2)CC1` (stereo not given), the figures for the EC50 in [3] and in experiment [4] were 0.952 µM (active) and > 60 µM (not active), respectively.

`C=CCc1cccc(/C=N/NC(=O)C(C)Nc2cccc(C)c2)c1O` (stereo not given): the values for the EC50 in experiment [3] and in [4] were 1.84 µM (active) and > 30 µM (not active), respectively.

For the compound `Clc1ccc2c(N/N=C/c3cccnc3)ccnc2c1`, the EC50 in experiment [3] was 0.931 µM (active); in experiment [4], > 60 µM (not active).

Take `CC1CC1c1ccc(/C=C(\C#N)C(=O)Nc2cccc(Cl)c2Cl)o1` (stereo not given): in experiment [2], the EC50 was > 53 µM (inactive).

As to `COc1ccc(C(=O)OCC(=O)N(C)C2CCS(=O)(=O)C2)cc1S(=O)(=O)N(C)Cc1ccccc1` (stereo not given), in experiment [1], the IC50 is > 47.1 µM (inactive). Besides, in experiment [2], the EC50 was > 53 µM (inactive).

As to `Cc1[nH]c(C)c(S(=O)(=O)NCCc2ccccc2)c1C(=O)N1CCCCC1`, the IC50 in experiment [1] was > 47.1 µM (inactive). In addition, the EC50 in [2] was > 53 µM (inactive).

In the case of `Cc1ccc(OCC(=O)Nc2ccc(S(=O)(=O)Nc3onc(C)c3C)cc2)cc1`, the AC50 on Cytochrome P450 3A4 is 35.5 µM (inconclusive).

Consider `COc1ccc(N2CCN(C3CCCCC3NS(=O)(=O)c3ccc(Cl)cc3)CC2)cc1` (stereo not given), for which the EC50 in [2] was 4.33 µM (active).

Turning to `Cn1nc([N+](=O)[O-])nc1Oc1ccccc1C(=O)N1CCOCC1`, the EC50 in experiment [3] is 0.117 µM (active); in experiment [4], > 60 µM (not active).

With `COc1ccc(NS(=O)(=O)c2cc(-c3nnnn3C)ccc2OC)cc1`, the concentration at half-maximal activity (AC50) on Cytochrome P450 2C9 was 25.1 µM (inconclusive).

With `COc1cc(CNCc2ccncc2)cc(Br)c1OCc1ccccc1F`, the results for the EC50 in experiment [3] and in [4] were 2.83 µM (active) and > 30 µM (not active), respectively.

As for `CN1CCN(c2nc(N3CCN(c4ccccc4)CC3)ncc2F)CC1`, the EC50 in experiment [3] is 0.253 µM (active); in [4] it was > 30 µM (not active).

`CC(C)(CNC(=O)c1cc(Cl)c(O)c(Cl)c1)N1CCCCC1`: the IC50 in experiment [1] is > 47.1 µM (inactive). For the same compound, the EC50 in [2] is > 53 µM (inactive).

Regarding `CCOc1ccc(Nc2nc(N3CCCC3)nc(N3CCN(c4ccc(OC)cc4)CC3)n2)cc1`, the EC50 is 2.73 µM (active) in experiment [3] and > 60 µM (not active) in [4].

As for `O=C(c1cnn2c(C(F)(F)F)cc(-c3cccs3)nc12)N1CCN(Cc2ccccc2)CC1`, the results for the EC50 in experiment [3] and in [4] were 0.721 µM (active) and > 60 µM (not active), respectively.

As for `COc1cc(CN2CCN(C(=O)CC(C)C)CC2)cc(OC)c1OC`, on Cytochrome P450 2C9, the AC50 was 28.2 µM (inconclusive).

With `Cc1[nH]cnc1C(=O)N/N=C/c1ccc([N+](=O)[O-])s1`, the EC50 in the experiment with Streptococcus is 5.18 µM (active); in experiment [3] it was 0.449 µM (active); in [5], 2.91 µM (active); in [4] it was > 60 µM (not active).

For `N#CCCn1c(=O)c(-c2ccccc2)nc2cnc(Oc3ccccc3)nc21`, the AC50 on Cytochrome P450 2C9 was 15.8 µM (inconclusive).

In the case of `Cc1cc(O)ccc1N1C(=O)c2cccc3cc([N+](=O)[O-])cc(c23)C1=O`, the EC50 in experiment [3] is 0.234 µM (active); in experiment [4], > 60 µM (not active).

For `O=C1CC(NS(=O)(=O)c2ccc([N+](=O)[O-])cc2)CN1c1ccc(Cl)cc1` (stereo not given), the EC50 in [3] is 0.477 µM (active); in experiment [4] it was > 60 µM (not active).

Consider `CC(C)[C@H](NC(=O)OCc1ccccc1)C(=O)N[C@H](C=O)Cc1ccccc1` (Cbz-Val-Phe-aldehyde), for which the half-maximal activity concentration (AC50) at Cytochrome P450 2C9 was 39.8 µM (inconclusive).

For `CO[C@H]1C[C@@H](O[C@@H]2[C@H](C)[C@H](O[C@@H]3O[C@@H](C)C[C@@H](N(C)C)[C@@H]3O)[C@H](C)C[C@]3(CO3)C(=O)[C@H](C)[C@H](O)[C@H](C)[C@H](C)OC(=O)[C@@H]2C)O[C@@H](C)[C@H]1O`, the AC50 on Cytochrome P450 3A4 is 12.6 µM (inconclusive).

For `C[C@@H](C(=O)O)c1ccc(C(=O)c2cccs2)cc1` [(R)-SUPROFEN], the AC50 on Cytochrome P450 2C9 was 12.6 µM (inconclusive).

Regarding `Cc1nnc2n(Cc3ccccc3)c(=O)c3c4c(sc3n12)COC(C)(C)C4`, the IC50 in [1] was > 47.1 µM (inactive). In addition, the EC50 in [2] is > 53 µM (inactive).

Consider `O=S(=O)(NCc1ccccc1)c1ccccc1NCCc1ccccc1`, for which the IC50 in [1] is > 47.1 µM (inactive). Also, in experiment [2], the EC50 is > 53 µM (inactive).

On to `O=C(CCC(=O)N1CCOc2ccc(Cl)cc21)NCc1ccccc1`, for which the EC50 in experiment [2] was > 53 µM (inactive).

For the compound `Cc1noc(C)c1CSc1nc2sc(C)c(C)c2c(=O)n1-c1ccccc1`, the results for the EC50 in [3] and in experiment [4] were 1.02 µM (active) and > 60 µM (not active), respectively.

As for `CCn1/c(=N\C(=O)CS(=O)(=O)c2ccc(C)cc2)sc2cccc(OC)c21`, the EC50 was 1.2 µM (active) in experiment [3] and 8.46 µM (active) in [4].

The values are drawn from ChEMBL document CHEMBL1201862, “PubChem BioAssay data set” (2004).
